Reference: ChEMBL document CHEMBL1124130 (J Med Chem, 1988)
pIC50: −log10 of the molar value.

What was measured:
[1] = biological target: T1, Muscarinic acetylcholine receptor M1 (Rattus norvegicus, UniProt P08482); test: biochemical
T1 sequence (P08482 whole entry): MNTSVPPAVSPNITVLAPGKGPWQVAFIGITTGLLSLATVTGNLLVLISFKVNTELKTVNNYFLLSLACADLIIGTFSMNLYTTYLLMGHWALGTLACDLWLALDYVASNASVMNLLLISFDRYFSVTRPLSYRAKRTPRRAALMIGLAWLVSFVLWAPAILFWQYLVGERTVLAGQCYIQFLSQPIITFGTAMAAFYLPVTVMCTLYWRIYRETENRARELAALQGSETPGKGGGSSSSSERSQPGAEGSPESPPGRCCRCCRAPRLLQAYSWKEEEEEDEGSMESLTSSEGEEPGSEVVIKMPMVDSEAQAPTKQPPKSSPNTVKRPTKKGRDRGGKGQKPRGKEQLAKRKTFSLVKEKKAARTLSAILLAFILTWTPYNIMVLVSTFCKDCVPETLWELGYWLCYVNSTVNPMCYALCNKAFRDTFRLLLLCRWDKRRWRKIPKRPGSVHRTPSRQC
Description: Binding affinity towards Muscarinic acetylcholine receptor M1 of cerebral cortex

[2] = biological target: T2, Muscarinic acetylcholine receptor M2 (Rattus norvegicus, UniProt P10980); test: Binding affinity towards muscarinic receptor of gastric fundus containing Muscarinic acetylcholine receptor M2; format: tissue-based, Stomach
T2 sequence (P10980 whole entry): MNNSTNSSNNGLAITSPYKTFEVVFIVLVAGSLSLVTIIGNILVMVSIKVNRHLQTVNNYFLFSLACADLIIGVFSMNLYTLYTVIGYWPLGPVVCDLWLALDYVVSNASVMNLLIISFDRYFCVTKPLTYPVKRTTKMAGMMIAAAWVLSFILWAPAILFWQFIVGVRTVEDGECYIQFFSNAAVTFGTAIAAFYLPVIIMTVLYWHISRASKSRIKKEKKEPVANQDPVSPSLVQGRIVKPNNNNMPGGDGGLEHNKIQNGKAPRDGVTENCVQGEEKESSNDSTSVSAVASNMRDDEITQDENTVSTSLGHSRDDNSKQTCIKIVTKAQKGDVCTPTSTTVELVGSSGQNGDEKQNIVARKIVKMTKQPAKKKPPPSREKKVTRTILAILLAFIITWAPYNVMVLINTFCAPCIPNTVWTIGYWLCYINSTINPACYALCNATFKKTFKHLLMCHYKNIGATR

[3] = Partition coefficient (log P) at pH 7.4; format: physicochemical; conditions: octanol/water
[4] = biological target: T1, Muscarinic acetylcholine receptor M1; test: Binding affinity towards muscarinic receptor of cerebral cortex containing Muscarinic acetylcholine receptor M1; format: tissue-based

pIC50 [1]	pIC50 [2]	logD [3]	pIC50 [4]	SMILES
6.82	6.22	–	–	CN1CCN(C(=O)N2c3ccccc3C(=O)Nc3cccnc32)CC1
7.22	6.05	–	–	CN1CCN(NC(=O)N2c3ccccc3C(=O)Nc3cccnc32)CC1
6.22	6.30	–	–	CN(C)CCCCC(=O)N1c2ccccc2C(=O)Nc2cccnc21
7.64	7.00	0.11	–	CN1CCN(CC(=O)N2c3ccccc3NC(=O)c3ccccc32)CC1
–	8.10	–	8.00	CN1CCCCC1CC(=O)N1c2ccccc2C(=O)Nc2cccnc21 (stereo not drawn)
5.82	6.15	–	–	CN(C)CC(=O)N1c2ccccc2C(=O)Nc2cccnc21
–	4.92	–	5.00	CN1CCN(CCC(=O)N2c3ccccc3C(=O)Nc3cccnc32)CC1
–	–	-0.64	–	CN1CCN(CC(=O)N2c3ccccc3C(=O)Nc3cccnc32)CC1 [PIRENZEPINE]
7.00	6.05	–	–	CN1CCC(OC(=O)N2c3ccccc3C(=O)Nc3cccnc32)CC1
–	6.82	–	7.00	CN1CCCC(CC(=O)N2c3ccccc3C(=O)Nc3cccnc32)CC1 (stereo not drawn)
–	7.30	–	7.70	CN1CCC(CC(=O)N2c3ccccc3C(=O)Nc3cccnc32)C1 (stereo not drawn)
6.52	5.52	-0.42	–	CN1CCN(CC(=O)N2c3ccccc3NC(=O)c3cccnc32)CC1
7.30	6.46	-0.15	–	CN1CCN(CC(=O)N2c3ccccc3NC(=O)c3cscc32)CC1
–	6.92	–	7.00	CN1CCCC(CC(=O)N2c3ccccc3C(=O)Nc3cccnc32)C1 (stereo not drawn)
–	6.70	–	6.70	CN(C)CCC(=O)N1c2ccccc2C(=O)Nc2cccnc21
–	7.00	–	7.30	CN(C)CCCC(=O)N1c2ccccc2C(=O)Nc2cccnc21
6.70	5.92	–	–	CN1CCC(NC(=O)N2c3ccccc3C(=O)Nc3cccnc32)CC1
7.15	6.15	–	–	CN1CCC(CC(=O)N2c3ccccc3C(=O)Nc3cccnc32)CC1
